Source: US20090131443A1, “METHOD FOR PREVENTION AND/OR TREATMENT OF RHEUMATOID ARTHRITIS” (Kowa Co., Ltd., priority 2005, published 2009)

System: rats of a collagen-induced arthritis model
Assay: Both-hindlimb edema suppression in rats of a collagen-induced arthritis model
Type: in vivo, Lewis female rats (LEW/Crj)
Settings: solo administration; for Edema Index: mean ± standard error, control group 6.85 ± 0.33; for Percent edema suppression: vs control group
Protocol: The effect on suppressing both-hindlimb edema of 2-benzyl-5-(4-chlorophenyl)-6-[4-(methylthio)phenyl]-2H-pyridazin-3-one (synthesized through the aforementioned method) and that of tacrolimus (Prograf (injection: 5 mg), product of Fujisawa Pharmaceutical Co., Ltd.) were determined both in the cases of combined administration and solo administration through the following procedure (by use of rats of a collagen-induced arthritis model) (FDA, CBER, CDER, CDRH: Guidance for industry—Clinical development programs for drugs, devices, and biological products for the treatment of rheumatoid arthritis (RA)—. (1999)). Lewis female rats (LEW/Crj) (obtained from Charles River Laboratories Japan, Inc.) were employed as test animals.
For each 8-week-old LEW/Crj rat, the volume of a portion from the ankle to the toe tip of each hindlimb was measured by means of a plethysmometer for small animals (TK-101CMP, product of Unicom), and a total of the two volumes was employed as a volume of the hindlimbs (hereinafter referred to as both-hindlimb volume) at the start of the test (hereinafter referred to as Pre value). By use of the Pre value as an index, the rats were divided into groups which are alike from group to group, through one-parameter-based block randomization.
The collagen emulsion for sensitization employed for inducing arthritis in rats was prepared by homogenizing a 0.3% Type II collagen liquid (product of Collagen Research Center), adjuvant peptide (product of Peptide Institute, Inc.), and adjuvant incomplete Freund (product of DIFCO) by means of a Handy Micro Homogenizer (product of Microtec Nition) under cooling with ice. The thus-prepared emulsion was intracutaneously injected to 10 sites in the dorsum of each rat at 0.1 mL/site, to thereby initially sensitize the rat. Seven days after initial sensitization, the same emulsion (0.12 mL) was intracutaneously injected to the tail head of the rat for booster sensitization.
Administration of one drug or two drugs was carried out the day after initial sensitization to day 26. To the 2-benzyl-5-(4-chlorophenyl)-6-[4-(methylthio)phenyl]-2H-pyridazin-3-one solo administration group, the drug was orally administered twice; in the morning (9:00 to 11:00) and in the evening (15:30 to 17:30) at a dose of 3 mg/kg. To the tacrolimus sole administration group, the drug was orally administered once in the afternoon (11:30 to 13:30) at a dose of 0.1, 0.3, or 1 mg/kg. To the combined administration group (2-benzyl-5-(4-chlorophenyl)-6-[4-(methylthio)phenyl]-2H-pyridazin-3-one and tacrolimus), 2-benzyl-5-(4-chlorophenyl)-6-[4-(methylthio)phenyl]-2H-pyridazin-3-one was orally administered in the morning (9:00 to 11:00) and in the evening (15:30 to 17:30) at a dose of 3 mg/kg, and tacrolimus was orally administered in the afternoon (11:30 to 13:30) at a dose of 0.3 mg/kg.
14 days, 18 days, 22 days, and 26 days after initial sensitization, both-hindlimb volume was measured. Volume of both-hindlimb edema was calculated by subtracting the Pre value from the thus-measured value.
Table 1 and FIG. 1 show Edema Index of the groups of rats, the groups being the 2-benzyl-5-(4-chlorophenyl)-6-[4-(methylthio)phenyl]-2H-pyridazin-3-one solo administration group, the tacrolimus solo administration group, and the combined administration group. The Edema Index of each group is an average of the indices obtained from 6 to 12 rats ±a standard error. Percent edema suppression represents a value obtained from the relationship:
100×[(average both-hindlimb edema volume of the control group)−(average both-hindlimb edema volume of each administration group)]/(average both-hindlimb edema volume of the control group). Relative factor represents a ratio of (average both-hindlimb edema volume of each administration group)/(average both-hindlimb edema volume of the control group).

Row | Structure (SMILES) | Edema Index suppression effect (in words) (3 mg/kg) | Edema Index (3 mg/kg orally twice daily, day 1 to day 26 after initial sensitization, sum of both-hindlimb edema volumes at days 14, 18, 22, 26) | Relative factor (3 mg/kg orally twice daily, ratio of group average edema volume to control group) | Percent edema suppression (3 mg/kg orally twice daily) | Edema Index (0.1 mg/kg orally once daily, day 1 to day 26) | Relative factor (0.1 mg/kg orally once daily, ratio to control group) | Percent edema suppression (0.1 mg/kg orally once daily) | Edema Index (0.3 mg/kg orally once daily, day 1 to day 26) | Relative factor (0.3 mg/kg orally once daily, ratio to control group) | Percent edema suppression (0.3 mg/kg orally once daily) | Edema Index (1 mg/kg orally once daily, day 1 to day 26) | Relative factor (1 mg/kg orally once daily, ratio to control group) | Percent edema suppression (1 mg/kg orally once daily) | Edema Index suppression effect (in words) (up to 1 mg/kg)
1 | CSc1ccc(-c2nn(Cc3ccccc3)c(=O)cc2-c2ccc(Cl)cc2)cc1 [2-benzyl-5-(4-chlorophenyl)-6-[4-(methylthio)phenyl]-2H-pyridazin-3-one] | do not result in potent Edema Index suppression effects | 5.58 ± 0.63 mL | 0.81 | 19% |  |  |  |  |  |  |  |  |  | 
2 | C=CC[C@@H]1/C=C(\C)C[C@H](C)C[C@H](OC)[C@H]2O[C@@](O)(C(=O)C(=O)N3CCCC[C@H]3C(=O)O[C@H](/C(C)=C/[C@@H]3CC[C@@H](O)[C@H](OC)C3)[C@H](C)[C@@H](O)CC1=O)[C@H](C)C[C@@H]2OC [Tacrolimus, tacrolimus] |  |  |  |  | 6.75 ± 0.31 mL | 0.99 | 1% | 6.09 ± 0.30 mL | 0.89 | 11% | 5.04 ± 0.20 mL | 0.74 | 26% | do not result in potent Edema Index suppression effects
